Read-outs that look alike come from different tables or passages of the source.
Tests used:
[1] = Plasma protein binding, human; type: in vitro ADME; details: human, plasma, 10 μM (n = 4); read-out: % Bound, Human Plasma (converted)
Experimental: (§1) All in vitro experiments like protein binding, microsomal stability, cell cytotoxicity were performed as per study protocols of respective experiments.

Human Plasma = test: Plasma protein binding, human; type: in vitro ADME; details: for % Bound, Human Plasma: 10 μM (n = 4)
Experimental: as §1

Hepatic clearance, human = type: in vitro ADME
Hepatic clearance, rat = type: in vitro ADME
Hepatic clearance, dog = type: in vitro ADME; details: dogs
[2] = Solid state stability of physical forms at 40° C./75% RH by pXRD; type: physicochemical; details: 40° C./75% RH open, 7 days
Experimental: Physical forms crystallized from various methods of crystallization were exposed to 40° C./75% RH for 7 days in open condition to understand the physical stability of the new physical forms in the presence of heat and humidity and also to know if there is any form conversion in the stable forms of Esylate and oxalate salts of FT-1518.

Hepatic clearance, mouse = type: in vitro ADME
[3] = Equilibrium solubility in pH 6.8 0.01M phosphate buffer by HPLC; type: physicochemical; details: pH6.8 0.01M potassium dihydrogen phosphate buffer
[4] = Plasma protein binding, mouse; type: in vitro ADME; details: mouse, plasma, 10 μM (n = 4); read-out: % Bound, Mouse plasma (converted)
Experimental: as §1

Caco-2 permeability = details: human, Caco-2
Caco-2 [5] = test: Caco-2 permeability
[6] = 1 week stability of shortlisted salts at 40° C./75% RH, open; type: physicochemical; details: for pH of 2% w/v aqueous dispersion/solution / state of 2% w/v aqueous dispersion/solution: 2% w/v in water; for % purity / XRD: after 7 days at 40° C./75% RH, open; for % purity: HPLC; for XRD: physical form vs initial
[7] = Intravenous and per oral pharmacokinetics in male Sprague Dawley rats; type: in vivo, Sprague Dawley (SD) rats; details: for Bioavailability (% F): PO dose (10 mg/kg) vs IV 5 mg/kg
Experimental: The husbandry conditions were maintained as described in animal facility SOPs during the study period. Animals procured were quarantined for 7 days followed by acclimatization for 5 days. The study was carried out for two days. Male Balb/c mice of age 10-12 weeks (18-25 g) and male Sprague Dawley rats 8-10 weeks (220-280 g) were used. The food was with held for a period of 4-12 hr prior to dosing and returned to all animals 4h post dosing and water supplied ad libitum. The doses of FT1518 were as follows: Mice: 10 mg/kg intravenous (i.v) and 50 mg/kg oral (p.o); rat—5 mg/kg intravenous (i.v) and 10 mg/kg oral (p.o). The formulation used in i.v and p.o studies were 10% dimethylsulfoxide (DMSO)+30% polyethyleneglycol 400 (PEG400)+60% water and 0.5% methylcellulose (MC)+0.1% tween 80. Blood was collected at the predetermined time points in mice (cardiac puncture) and Jugular vein (rats) over a period of 24h in eppendorf tubes containing K2EDTA as anticoagulant. The plasma was isolated from the blood and stored at −80° C. until bioanalysis.
Intravenous and Per Oral Pharmacokinetic Profile of FT1518 (Base); FT1518-Esylate Salt and FT1518-Oxalate Salt in Male Sprague Dawley (SD) Rats Species: SD rats Gender: Male Dose: IV (5 mg/kg), Single dose • PO (10 mg/kg), single dose Formulation: • IV—DMSO: PEG400:Water (10:30:60 v/v) • PO— 0.5% methylcellulose and 0.1% Tween 80 in water Sampling Time Points: • IV: 5 min, 15 min, 30 min, 1 h, 2, 4, 8 and 24 h post dose • PO: 10 min, 15 min, 30 min, 1 h, 2, 4, 8 and 24 h post dose. PK analysis: Phoenix software (Pharsight product). Noncompartmental Analysis (NCA) was used to estimate the PK parameters

prostate cancer (PC-3) = test: In vitro assay, PC-3; type: cell-based; details: prostate cancer (PC-3) line
Experimental: as §1

[8] = Qualitative solubility of FT1518 in aqueous media containing counterions; type: physicochemical
Text: Solubility of FT-1518 was checked in various counter ion solutions before performing salt screening to obtain an estimate of feasibility of salt formation in the respective counter ions.

Caco-2 [9] = tested on: Caco-2
[10] = sample from cooling crystallization in ethanol
[11] = sample from slurry transformation in ethyl acetate
[12] = sample from solvent evaporation in acetonitrile
[13] = sample from solvent evaporation in ethanol
[14] = PO dose (10 mg/kg), single dose, male SD rats, 10 mg/kg
[15] = IV dose (5 mg/kg), single dose, male SD rats

SMILES | plasma protein binding, human plasma (Human Plasma) | hepatic clearance in terms of liver blood flow (Hepatic clearance, human) | hepatic clearance in terms of liver blood flow (Hepatic clearance, rat) | hepatic clearance in terms of liver blood flow (Hepatic clearance, dog) | solid state stability (pXRD form) [2, 10] | solid state stability (pXRD form) [2, 11] | solid state stability (pXRD form) [2, 12] | solid state stability (pXRD form) [2, 13] | hepatic clearance in terms of liver blood flow (Hepatic clearance, mouse) | Solubility in pH 6.8 buffer [3] [mg/mL] | permeability in Caco-2 assay (Caco-2 [5]) | pH of 2% w/v aqueous dispersion/solution [6] | state of 2% w/v aqueous dispersion/solution [6] | % purity [6] [%] | XRD [6] | Bioavailability (% F) ([7]; male SD rats) [%] | % Bound, Human Plasma (Human Plasma) [%] | Cmax [7, 14] [ng/mL] | further results
CCC(CC)n1cnc2c(-c3cnc(N)cn3)nc(N3CC4CCC(C3)O4)nc21 [FT-1518-Esylate] | ✓ FT1518, FT1518-Esylate and FT1518-Oxalate showed moderate plasma protein binding in both mouse and human plasma | moderate | low | low | remained the same | 40 °C slurry converted | Same as initial salt | formed Same as initial salt | high | 77.98 | ✓ FT1518 base, FT1518-Esylate and FT1518-Oxalate showed high permeability in Caco-2 assay. Efflux ratio of <2 indicates compounds that the compounds may not be substrates of P-gp or BCRP efflux transporters | 2.1 | soluble | 98.07 | Same as initial form | > 100 | – | – | fraction unbound at 10 μM [1]: 0.0298; solid state stability (pXRD form) ([2]; sample from slurry transformation in THF: toluene (1:1)): Same as initial salt; solid state stability (pXRD form) ([2]; sample from slurry transformation in THF): Same as initial salt; solid state stability (pXRD form) ([2]; sample from slurry transformation in toluene): Same as initial salt; solid state stability (pXRD form) ([2]; sample from solvent evaporation in THF:water (9:1)): Same as initial salt; solid state stability (pXRD form) ([2]; sample from solvent evaporation in methanol): Same as initial salt; fraction unbound at 10 μM [4]: 0.0854; efflux ratio at 10 μM (Caco-2 permeability): 1.8; Papp A→B at 10 μM (Caco-2 permeability; Caco-2, Apparent permeability (Papp) A to B, 10 μM (n = 3)): 21.6 ± 0.887 ×10⁻⁶ cm/s; Papp B→A at 10 μM (Caco-2 permeability; Caco-2, Apparent permeability (Papp) B to A, 10 μM (n = 3)): 38.3 ± 0.426 ×10⁻⁶ cm/s; AUC ([7]; male, Sprague Dawley, rat, plasma, po, 10 mg/kg, PO dose (10 mg/kg), single dose, male SD rats, read-out: AUC (AU C0^.oo)): 9680 ng·h/mL; Cmax ([7]; male, Sprague Dawley, rat, plasma, po, 10 mg/kg, PO dose (10 mg/kg), single dose, male SD rats, read-out: Cmax): 1770 ng/mL
CCC(CC)n1cnc2c(-c3cnc(N)cn3)nc(N3CC4CCC(C3)O4)nc21 [FT-1518-Oxalate] | ✓ FT1518, FT1518-Esylate and FT1518-Oxalate showed moderate plasma protein binding in both mouse and human plasma | moderate | moderate | low | Same as initial salt | Same as initial | Same as initial salt | Partial conversion of new | moderate | 10.21 | ✓ FT1518 base, FT1518-Esylate and FT1518-Oxalate showed high permeability in Caco-2 assay. Efflux ratio of <2 indicates compounds that the compounds may not be substrates of P-gp or BCRP efflux transporters | 2.6 | dispersion | 97.04 | Same as initial form | 68 | 95.54 | 1980 | solid state stability (pXRD form) ([2]; sample from cooling crystallization in tetrahydrofuran): Same as initial salt; solid state stability (pXRD form) ([2]; sample from slurry transformation in ethyl acetate: water (9:1)): remained same; solid state stability (pXRD form) ([2]; sample from slurry transformation in hexane): Same as initial; solid state stability (pXRD form) ([2]; sample from solvent evaporation in acetone): Same as initial salt form; solid state stability (pXRD form) ([2]; sample from solvent evaporation in tetrahydrofuran): Major conversion of new; Apparent permeability (Papp) A to B (Caco-2 [5]; 10 μM (n = 3), Caco-2): 23.207 ± 1.801 ×10⁻⁶ cm/s; Apparent permeability (Papp) B to A (Caco-2 [5]; 10 μM (n = 3), Caco-2): 29.203 ± 1.482 ×10⁻⁶ cm/s; IC50 (prostate cancer (PC-3)): 183 µM
CCC(CC)n1cnc2c(-c3cnc(N)cn3)nc(N3CC4CCC(C3)O4)nc21 [FT-1518 base] | ✓ FT1518, FT1518-Esylate and FT1518-Oxalate showed moderate plasma protein binding in both mouse and human plasma | – | – | – | – | – | – | – | – | – | – | – | – | 97.82 | Same as initial form | 44 | 97.32 | 1592 | Solubility ([8]; 0.04N phthalic acid): <1000 µg/mL; Solubility ([8]; 0.1N H2SO4): >100000 µg/mL; Solubility ([8]; 0.1N adipic acid): <1000 µg/mL; Apparent permeability (Papp) A to B (Caco-2 [9]): 21.571 ± 1.767 ×10⁻⁶ cm/s; Apparent permeability (Papp) B to A (Caco-2 [9]): 30.94 ± 0.428 ×10⁻⁶ cm/s; permeability in Caco-2 assay (Caco-2 [9]): ✓ FT1518 base, FT1518-Esylate and FT1518-Oxalate showed high permeability in Caco-2 assay. Efflux ratio of <2 indicates compounds that the compounds may not be substrates of P-gp or BCRP efflux transporters; Solubility in pH 6.8 buffer ([3]; listed as Free base of FT-1518): 0.02 mg/mL; clearance as % of SD rat liver blood flow ([7]; IV 5 mg/kg, SD rats): ~42%; AUC0-∞ [7, 15]: 3905 ± 1334 ng·h/mL; Cl [7, 15]: 23.3 ± 10 mL/min/kg; Tmax ([7]; PO dose (10 mg/kg), single dose, male SD rats): 30 min; AUC (AU C0^.oo) [7, 14]: 3422 ± 684 ng·h/mL
